Measurements from patent US20250002506A1, “IMPROVED PROCESS FOR THE PREPARATION OF LURBINECTEDIN AND ITS MORPHS THEREOF” (RK Pharma Inc., priority 2021, published 2025).

Experiments:
[1] = Stability study: storage in a sealed reagent bottle at -20° C for three months (description, water content, HPLC purity, XRPD); format: physicochemical; parameters: HPLC impurity at RRT 0.07 / HPLC impurity at RRT 0.20 / HPLC impurity at RRT 0.85 / HPLC impurity at RRT 0.98 / HPLC impurity at RRT 1.02 / HPLC impurity at RRT 1.07 / HPLC impurity at RRT 1.17 / HPLC impurity at RRT 1.23 / HPLC impurity at RRT 1.31 / HPLC impurity at RRT 1.38 / HPLC impurity at RRT 1.41: unit not given here
Experimental: An appropriate amount of the sample of the amorphous as well as RK-1 polymorphic form of Lurbinectedin obtained in examples 5 to 9 was placed in a reagent bottle at-20° C. under a sealed condition for the period of three months to perform a stability test. X-ray powder diffraction pattern, HPLC purity as well as DSC Chromatogram of amorphous as well as RK-1 polymorphic form of Lurbinectedin was evaluated again after storing for period of 3 months. Result of the stability study of both amorphous (Obtained in Example 5) as well as RK-1 polymorphic form of Lurbinectedin (Obtained in Example 6) has been tabulated in Tables 1-2 given below. […] Characteristic peaks in the XRPD pattern and DSC chromatogram of RK-1 polymorphic form of Lurbinectedin obtained initially as well as after storing for the period of three months have been tabulated in Table 3 given below.

[2] = Chemical stability under long term and accelerated storage conditions; format: physicochemical
[3] = at 3 months (A/3M), -20° C, sealed

SMILES	HPLC impurity at RRT 0.07 [1, 3]	HPLC impurity at RRT 0.20 [1, 3]	HPLC impurity at RRT 0.85 [1, 3]	HPLC impurity at RRT 0.98 [1, 3]	HPLC impurity at RRT 1.02 [1, 3]	HPLC impurity at RRT 1.07 [1, 3]	HPLC impurity at RRT 1.31 [1, 3]	HPLC impurity at RRT 1.38 [1, 3]	HPLC impurity at RRT 1.41 [1, 3]	HPLC purity, LRBN [1, 3]	Description ([1]; at 3 months, -20° C, sealed)	Water content ([1]; at 3 months, -20° C, sealed)	Description ([1]; initial)	HPLC impurity at RRT 0.20 ([1]; initial)	HPLC impurity at RRT 0.98 ([1]; initial)	HPLC impurity at RRT 1.07 ([1]; initial)	HPLC impurity at RRT 1.17 ([1]; initial)	HPLC impurity at RRT 1.23 ([1]; initial)	HPLC impurity at RRT 1.31 ([1]; initial)	HPLC purity, LRBN ([1]; initial)	other results
COc1ccc2[nH]c3c(c2c1)CCN[C@]31CS[C@@H]2c3c(OC(C)=O)c(C)c4c(c3[C@H](COC1=O)N1[C@@H]2[C@H]2c3c(cc(C)c(OC)c3O)C[C@@H]([C@@H]1O)N2C)OCO4 [Amorphous form of Lurbinectedin, Lurbinectedin]	0.06	0.02	0.01	0.03	0.05	0.02	0.02	0.01	0.01	99.77%	Off white	9.91%	Off white	0.02	0.03	0.02	0.04	0.03	0.02	99.81%	Water content ([1]; initial): 9.67%; Stability on storage (XRPD pattern after three months same as obtained initially) ([1]; -20° C, sealed): stable on storage
COc1ccc2[nH]c3c(c2c1)CCN[C@]31CS[C@@H]2c3c(OC(C)=O)c(C)c4c(c3[C@H](COC1=O)N1[C@@H]2[C@H]2c3c(cc(C)c(OC)c3O)C[C@@H]([C@@H]1O)N2C)OCO4 [Pure Lurbinectedin, Lurbinectedin]																					Period for which chemically stable [2]: about 6 months
COc1ccc2[nH]c3c(c2c1)CCN[C@]31CS[C@@H]2c3c(OC(C)=O)c(C)c4c(c3[C@H](COC1=O)N1[C@@H]2[C@H]2c3c(cc(C)c(OC)c3O)C[C@@H]([C@@H]1O)N2C)OCO4 [polymorphic form RK-1 of Lurbinectedin, Lurbinectedin]	0.06	0.02	0.01	0.03	0.05	0.02	0.02	0.01	0.01	99.77%	Off white	10.1%	Off white	0.03	0.03	0.02	0.04	0.03	0.02	99.86%	Description ([1]; after 1 month, -20° C, sealed): Off white powder; Description ([1]; at 3 months, -20° C, sealed, listed as RK-1 polymorphic form of Lurbinectedin): Off white powder; Water content ([1]; initial): 9.69%; Description ([1]; initial, listed as RK-1 polymorphic form of Lurbinectedin): Off white powder; Stability on storage (XRPD pattern after three months same as obtained initially) ([1]; -20° C, sealed): stable on storage
